Source: ChEMBL document CHEMBL4340570, “Design, synthesis, and biological evaluation of novel 4-oxobenzo[d]1,2,3-triazin-benzylpyridinum derivatives as potent anti-Alzheimer agents” (Bioorg Med Chem, 2019)
Active and inactive are the calls of the source. The rule behind the calls is not given here.

Legend:
Cholinesterase = Cholinesterase (Equus caballus, UniProt P81908); experiment: Inhibition of equine serum BuChE pre-incubated for 5 mins before butyrylthiocholine iodide substrate addition and measured after 15 mins by Ellman's method
Chain of Cholinesterase (P81908 whole entry): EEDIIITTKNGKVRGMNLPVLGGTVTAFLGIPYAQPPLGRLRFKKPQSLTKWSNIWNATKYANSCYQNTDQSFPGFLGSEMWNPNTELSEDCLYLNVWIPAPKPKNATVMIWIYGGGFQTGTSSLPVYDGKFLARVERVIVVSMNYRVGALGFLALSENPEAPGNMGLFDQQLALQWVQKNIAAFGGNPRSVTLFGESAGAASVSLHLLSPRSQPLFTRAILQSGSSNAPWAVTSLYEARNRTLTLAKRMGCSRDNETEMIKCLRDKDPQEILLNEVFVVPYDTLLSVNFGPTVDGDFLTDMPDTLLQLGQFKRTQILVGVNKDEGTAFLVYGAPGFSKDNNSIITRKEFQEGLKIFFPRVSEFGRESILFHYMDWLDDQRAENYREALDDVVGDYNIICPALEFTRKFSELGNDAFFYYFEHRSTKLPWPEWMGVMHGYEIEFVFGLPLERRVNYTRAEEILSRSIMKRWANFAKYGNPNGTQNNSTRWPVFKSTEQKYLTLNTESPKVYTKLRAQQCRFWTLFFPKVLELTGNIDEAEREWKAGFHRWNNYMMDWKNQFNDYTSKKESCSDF

Acetylcholinesterase [1] = target: T1, Acetylcholinesterase (Electrophorus electricus, UniProt O42275); experiment: Inhibition of electric eel AChE pre-incubated for 5 mins before acetylthiocholine iodide substrate addition and measured after 15 mins by Ellman's method
T1 sequence (O42275 whole entry): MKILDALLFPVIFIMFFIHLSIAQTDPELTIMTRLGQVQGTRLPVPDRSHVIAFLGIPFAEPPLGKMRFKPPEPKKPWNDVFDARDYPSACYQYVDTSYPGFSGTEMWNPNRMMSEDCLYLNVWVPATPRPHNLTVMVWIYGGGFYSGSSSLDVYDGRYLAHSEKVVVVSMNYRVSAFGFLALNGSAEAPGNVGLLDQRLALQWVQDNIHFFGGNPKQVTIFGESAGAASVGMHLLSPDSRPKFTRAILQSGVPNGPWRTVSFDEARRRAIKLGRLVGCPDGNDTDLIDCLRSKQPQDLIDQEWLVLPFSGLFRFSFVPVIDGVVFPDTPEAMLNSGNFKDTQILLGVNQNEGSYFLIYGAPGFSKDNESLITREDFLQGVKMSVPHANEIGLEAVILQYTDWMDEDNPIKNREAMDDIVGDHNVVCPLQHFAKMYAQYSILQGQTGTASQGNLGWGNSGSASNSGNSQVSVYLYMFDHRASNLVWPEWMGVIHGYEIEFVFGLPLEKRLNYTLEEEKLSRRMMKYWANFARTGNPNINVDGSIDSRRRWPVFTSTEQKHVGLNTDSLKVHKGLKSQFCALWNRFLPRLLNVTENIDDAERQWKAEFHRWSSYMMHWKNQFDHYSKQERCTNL

Acetylcholinesterase [2] = target: T1, Acetylcholinesterase; experiment: Mixed type inhibition of electric eel AChE pre-incubated for 5 mins before acetylthiocholine iodide substrate addition and measured after 15 mins by modified Ellman's method baaed Lineweaver-Burk plot analysis
[3] = target: Beta-secretase 1 (Homo sapiens) (UniProt P56817); experiment: Inhibition of recombinant human BACE1 (1 to 460 residues) expressed in baculovirus-infected insect cells at 50 uM using Rh-EVNLDAEFK-quencher as substrate measured after 90 mins by FRET assay relative to control
Chain of Beta-secretase 1 (Homo sapiens) (P56817 whole entry, the tested form may be a part): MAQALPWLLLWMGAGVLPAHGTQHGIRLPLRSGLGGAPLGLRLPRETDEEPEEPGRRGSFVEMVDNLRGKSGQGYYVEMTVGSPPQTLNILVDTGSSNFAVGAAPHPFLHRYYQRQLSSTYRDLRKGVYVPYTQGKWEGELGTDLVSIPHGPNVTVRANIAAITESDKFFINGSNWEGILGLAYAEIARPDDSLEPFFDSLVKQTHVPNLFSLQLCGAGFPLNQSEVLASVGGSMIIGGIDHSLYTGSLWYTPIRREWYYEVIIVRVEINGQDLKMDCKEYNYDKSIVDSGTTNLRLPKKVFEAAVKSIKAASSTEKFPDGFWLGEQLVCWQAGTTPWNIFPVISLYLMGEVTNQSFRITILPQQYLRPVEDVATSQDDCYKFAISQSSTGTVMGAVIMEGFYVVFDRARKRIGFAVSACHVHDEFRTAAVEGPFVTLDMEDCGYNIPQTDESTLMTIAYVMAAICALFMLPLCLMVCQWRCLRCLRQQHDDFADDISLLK

PC-12 [4] = experiment: Neuroprotective activity in rat PC12 cells assessed as protection against H2O2-induced cytotoxicity at 100 uM pre-incubated for 3 hrs before H2O2 addition and measured after 12 hrs by MTT assay; format: functional, cell-based
[5] = target: Beta-secretase 1 (Homo sapiens) (UniProt P56817); experiment: Inhibition of recombinant human BACE1 (1 to 460 residues) expressed in baculovirus-infected insect cells at 10 uM using Rh-EVNLDAEFK-quencher as substrate measured after 90 mins by FRET assay relative to control
PC-12 [6] = experiment: Neuroprotective activity in rat PC12 cells assessed as protection against H2O2-induced cytotoxicity at 10 uM pre-incubated for 3 hrs before H2O2 addition and measured after 12 hrs by MTT assay; format: functional, cell-based
PC-12 [7] = experiment: Neuroprotective activity in rat PC12 cells assessed as protection against H2O2-induced cytotoxicity at 1 uM pre-incubated for 3 hrs before H2O2 addition and measured after 12 hrs by MTT assay; format: functional, cell-based

| Compound | IC50 (Cholinesterase) | IC50 (Acetylcholinesterase [1]) | other results |
| --- | --- | --- | --- |
| O=c1c2ccccc2nnn1Cc1cc[n+](Cc2ccccc2[N+](=O)[O-])cc1 | 18.2 µM | 1.3 µM |  |
| O=c1c2ccccc2nnn1Cc1ccc[n+](Cc2ccccc2[N+](=O)[O-])c1 | 17.5 µM | 0.1 µM | Ki (Acetylcholinesterase [2]): 0.017 µM; inhibition [3]: 61.2%; Activity (PC-12 [4]): Active; inhibition [5]: 37% |
| O=c1c2ccccc2nnn1Cc1ccc[n+](Cc2ccc([N+](=O)[O-])cc2)c1 | 17.2 µM | 0.16 µM |  |
| O=c1c(O)c(-c2ccc(O)c(O)c2)oc2cc(O)cc(O)c12 |  |  | Activity (PC-12 [6]): Active |
| O=c1c2ccccc2nnn1Cc1ccc[n+](Cc2ccccc2)c1 | 31.2 µM | 0.17 µM |  |
| O=c1c2ccccc2nnn1Cc1ccc[n+](Cc2ccc(F)cc2)c1 | 23.8 µM | 0.15 µM | Activity (PC-12 [7]): Active |
| O=c1c2ccccc2nnn1Cc1ccc[n+](Cc2ccccc2F)c1 | 23.9 µM | 0.29 µM |  |
| O=c1c2ccccc2nnn1Cc1cc[n+](Cc2ccccc2F)cc1 | 64.6 µM | 1.68 µM |  |
| O=c1c2ccccc2nnn1Cc1ccc[n+](Cc2ccccc2Br)c1 | 16.8 µM | 0.15 µM | Activity (PC-12 [7]): Active; Activity (PC-12 [4]): Active; Activity (PC-12 [6]): Active |
| O=c1c2ccccc2nnn1Cc1ccc[n+](Cc2c(Cl)cccc2Cl)c1 | 21.6 µM | 0.73 µM |  |
| Cc1ccccc1C[n+]1cccc(Cn2nnc3ccccc3c2=O)c1 | 13.7 µM | 0.2 µM |  |
| O=c1c2ccccc2nnn1Cc1ccc[n+](Cc2cccc(F)c2)c1 | 27.8 µM | 0.17 µM |  |
| O=c1c2ccccc2nnn1Cc1ccc[n+](Cc2ccc(Br)cc2)c1 | 5.8 µM | 0.84 µM |  |
| O=c1c2ccccc2nnn1Cc1cc[n+](Cc2ccccc2)cc1 | 75.2 µM | 1.34 µM |  |
| O=c1c2ccccc2nnn1Cc1cc[n+](Cc2ccccc2Cl)cc1 | 55 µM | 1.37 µM |  |
| O=c1c2ccccc2nnn1Cc1cc[n+](Cc2ccc(Br)cc2)cc1 | 51.8 µM | 1.18 µM |  |
| O=c1c2ccccc2nnn1Cc1ccc[n+](Cc2cccc(Br)c2)c1 | 14.7 µM | 0.3 µM |  |
| O=c1c2ccccc2nnn1Cc1cc[n+](Cc2ccc(F)cc2)cc1 | 70.7 µM | 1.64 µM |  |
